For four molecules, EC50 and Ka results are on record in ChEMBL document CHEMBL1135222, “Anionic cyclophanes as potential reversal agents of muscle relaxants by chemical chelation” (Bioorg Med Chem Lett, 2002).

Holding throughout (format): functional, organism-based
The species entered for test [1] is Gallus gallus. Put plainly: Concentration that produced 50% reversal of gallamine induced neuromuscular block in the chick biventer assay.
Test [2] is filed under the species Gallus gallus. As to the kind of experiment: Concentration that produced 50% reversal of pancuronium induced neuromuscular block in the chick biventer assay.
For test [3], the species on record is Gallus gallus. As to the kind of experiment: Tested for association constant against gallamine relaxant in chick biventer muscle preparation.
Test [4] is filed under the species Gallus gallus. Put plainly: Tested for association constant against pancuronium relaxant in chick biventer muscle preparation.
Test [5] is filed under the species Gallus gallus. Put plainly: Tested for the reversion of vecuronium-induced block in chick biventer assay.

`O=C(O)c1cc2ccc1OCc1ccc(cc1)COc1ccc(cc1C(=O)O)Cc1ccc(c(C(=O)O)c1)OCc1ccc(cc1)COc1ccc(cc1C(=O)O)C2`: the EC50 in the test filed under Gallus gallus [1] is 563 µM; in the test filed under Gallus gallus [2], 292 µM. Moreover, the values for the Ka in the test filed under Gallus gallus [3] and in the test filed under Gallus gallus [4] were 3280 M⁻¹ and 2500 M⁻¹, respectively.
For `O=C(O)c1cc2ccc1OCCCCCOc1ccc(cc1C(=O)O)Cc1ccc(c(C(=O)O)c1)OCCCCCOc1ccc(cc1C(=O)O)C2` the same measures were 1030 µM, 142 µM, 608 M⁻¹ and 167 M⁻¹.
In turn, `CN(C)C(=O)Oc1cccc([N+](C)(C)C)c1` [NEOSTIGMINE BROMIDE] gave a concentration for a half-maximal effect (EC50) in the test filed under Gallus gallus [5] of 0.028 µM.
Take `O=C(O)c1cc2ccc1OCc1ccc3cc(ccc3c1)COc1ccc(cc1C(=O)O)Cc1ccc(c(C(=O)O)c1)OCc1ccc3cc(ccc3c1)COc1ccc(cc1C(=O)O)C2`: the EC50 was determined as 104 µM in the test listed under Gallus gallus [1] and 40 µM in the test filed under Gallus gallus [2]. Besides, the Ka in the test filed under Gallus gallus [3] was 13200 M⁻¹; in the test listed under Gallus gallus [4], 10400 M⁻¹.
